Measured values reported in US20250134889A1, “TARGETING IRE1 KINASE AND FMRP FOR PROPHYLAXIS, MANAGEMENT AND TREATMENT OF ATHEROSCLEROSIS” (CEDARS-SINAI MEDICAL CENTER, priority 2022, published 2025).

Key:
peritoneal macrophages = assay: In vivo foam cell formation assay; set-up: species or system mouse; settings: Apoe-/- mice, WD 12 weeks, 30 mg/kg/day in the last 4 weeks, ORO staining
Method: FIGS. 2A-2M depict that FMRP deficiency enhances RCT while reducing foam cell formation in vivo. (Data are mean±SEM. Unpaired t-test with Welch's correction. * P≤0.05, ** P≤0.01, *** P≤0.001.) • 2A. Fmr1^+/+ and Fmr1^−/− mice were injected with AAV_PCSK9 and fed with 16 weeks of WD. Residential PM were stained with Oil Red O (ORO) and imaged (n=7; Scale bar=50 μm). • 2B. Apoe-/mice were fed with WD (12 weeks) and injected with vehicle (DMSO) or AMG-18 (30 mg/kg/day) in the last 4 weeks of WD. Residential PM were stained with ORO and imaged (n=5; Scale bar=50 μm). • 2C-2E. […] Macrophages were pre-loaded with fluorescently labeled cholesterol (16 hours) followed by incubation in efflux medium including APOA1 (25 μg/ml) or HDL (50 μg/ml) as acceptors for 6 hours. % Efflux was calculated as cholesterol signal in medium/cholesterol signal in medium and cell: Cholesterol efflux in (2F) Fmr1+/+ and Fmr1^−/− BMDM (n=4) and in (2G) BMDM that were pre-treated either with DMSO or AMG-18 (5 μM; 1 hour) (n=4). • 2H-2K. […] Protein lysates from macrophages used in FIG. 2C were analyzed by western blotting using specific antibodies for FMRP and β-Actin. • 2M. […]

PM = assay: In vivo efferocytosis; set-up: species or system mouse; settings: C57BL/6, AMG-18 30 mg/kg 8 hours, CFSE-labeled ACs i.p. 1.5 hours
From the text: FIGS. 3A-3G depict that FMRP-deficiency increases efferocytosis in vivo. (For all images scale bar=50 μm; Red: Macrophages, Green: AC/AC-1, Violet: AC-2. Data are mean±SEM. Unpaired t-test with Welch's correction. * P≤0.05, ** P≤0.01, *** P≤0.001.) • 3A-3E. In vitro and in vivo efferocytosis experiments, where percentage of macrophages F4/80^+ (red) that ingested apoptotic cells (AC) labeled with carboxyfluorescein succinimidyl ester (CFSE)^+ (green) were reported as % efferocytosis. • 3A. BMDMs were transfected with Fmr1- or control-siRNA and incubated CFSE-labeled AC for the indicated hours (n=4). • 3B. Fmr1^+/+ and Fmr1^−/− BMDMs were treated with PA (500 μM) for 6 hours and then incubated with CFSE-labeled ACs for 4 hours (n=4). • 3C. Fmr1^+/+ and Fmr1^−/− mice were fed WD (16 weeks) and injected intraperitoneally with CFSE-labeled AC (1.5 hours), followed by PM elicitation (n=4-5). • 3D. BMDM were pre-treated either with vehicle (DMSO) or AMG-18 (5 μM) for 1 hour then incubated with CFSE-labeled ACs for 4 hours (n=4). • 3E. […] In vitro continuous efferocytosis experiments, where macrophages were stained for F4/80^+ (red), AC were labeled with CFSE (AC-1; green) or Violet (AC2; violet). % continuous efferocytosis was determined by the ratio of F4/80^+, CFSE^+ and Violet^+ (triple positive) cells to total F4/80^+/+ and CFSE^+ (double positive) cells. • 3F. […]

Cc1ccc2c(NS(=O)(=O)c3ccccc3Cl)cccc2c1Oc1ncccc1-c1ccnc(N[C@H]2CCCNC2)n1 [AMG-18]
foam cell formation in the peritoneum (peritoneal macrophages): reduced
efferocytosis of ACs by PM in vivo (PM): induced
